{
  "source": "patent US9757408B2",
  "about": "(Hayashibara Co., Ltd., priority 2010, dated 2017)",
  "tested_on": "mice with bacterial shock induced by LPS",
  "assay": "LPS bacterial shock mice, survival, ANO i.v. one hour after LPS (Experiment 8)",
  "format": "in vivo, BALB/c mice",
  "details": "LPS 18 mg/kg i.p., ANO 135 mg/kg i.v. at one hour after LPS",
  "experimental": "An LPS specimen derived from E. coli ([…]), commercialized by Sigma-Aldrich Corporation, St. Louis, Mo. USA, was dissolved in PBS and intraperitoneally administered to all the seven mice in each group at a dose of 18 mg/kg body weight of LPS. […] For each group, the survival number of mice was confirmed up to 7 to 27 hours after administering LPS and determined the survival rate (%) of mice in each group.",
  "data": [
    {"compound": "Nc1c2ncn([C@@H]3O[C@H](CO)[C@@H](O)[C@H]3O)c2nc[n+]1[O-]", "note": "[ANO, adenosine N1-oxide]", "values": [
      {"measurement": "Survival rate (%) of mice, 7 Hours", "setting": "7 hours", "value": 100, "unit": "%"},
      {"measurement": "Survival rate (%) of mice, 22 Hours", "setting": "22 hours", "value": 86, "unit": "%"},
      {"measurement": "Survival rate (%) of mice, 27 Hours", "setting": "27 hours", "value": 57, "unit": "%"}
    ]}
  ]
}
